Assay results from the supplement of paper PMC10307832.

Columns and labels:
Experiment in all cases: relative viability (nuclei count vs DMSO), 5 days (fraction); higher = more cells survive
[1] = system: A549
Outline: (§1)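 Medians of duplicate plates are given as relative viability. That measure is the nuclei count in treated wells divided by the count in vehicle wells. Counts were taken on 4× images of lung cancer cell lines in 1536-well plates, 5 days after pin-tool dosing the day after seeding with one drug alone or a fixed anchor-drug dose plus five library-drug doses (not always all listed) in √10 steps.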

[2] = system: COR-L 105
Outline: as §1

[3] = system: Calu-6
Outline: as §1

[4] = system: EBC-1
Outline: as §1

[5] = system: IA-LM
Outline: as §1

[6] = system: LCLC-103H
Outline: as §1

[7] = system: LK-2
Outline: as §1

[8] = system: NCI-H1299
Outline: as §1

[9] = system: NCI-H1355
Outline: as §1

[10] = system: NCI-H1666
Outline: as §1

[11] = system: NCI-H1703
Outline: as §1

[12] = system: NCI-H520
Outline: as §1

Compound `COc1cc2nccc(Oc3ccc(NC(=O)Nc4cc(C)on4)c(Cl)c3)c2cc1OC` [Tivozanib] + C[C@]1(O)C[C@@H](c2nc(-c3ccc4ccc(-c5ccccc5)nc4c3)c3c(N)nccn32)C1 [Linsitinib] (partner 1 µM) has a relative viability ([1]; first compound 0.005 µM) of 0.52, a relative viability ([1]; first compound 0.01581 µM) of 0.606 and a relative viability ([1]; first compound 0.05 µM) of 0.625. The relative viability ([1]; first compound 0.1581 µM) was 0.635, the relative viability ([1]; first compound 0.5 µM) was 0.656 and the relative viability ([2]; first compound 0.01581 µM) was 1.25. For the same compound, the relative viability ([2]; first compound 0.05 µM) was 1.02, the relative viability ([2]; first compound 0.1581 µM) was 1.02 and the relative viability ([2]; first compound 0.5 µM) was 0.904. The relative viability ([3]; first compound 0.005 µM) was 0.89, the relative viability ([3]; first compound 0.01581 µM) was 0.941 and the relative viability ([3]; first compound 0.05 µM) was 0.894. For the same compound, the relative viability ([3]; first compound 0.1581 µM) was 0.915, the relative viability ([3]; first compound 0.5 µM) was 0.83 and the relative viability ([4]; first compound 0.005 µM) was 0.86. The relative viability ([4]; first compound 0.01581 µM) was 0.898, the relative viability ([4]; first compound 0.05 µM) was 0.909 and the relative viability ([4]; first compound 0.1581 µM) was 0.762. For the same compound, the relative viability ([4]; first compound 0.5 µM) was 0.887, the relative viability ([5]; first compound 0.005 µM) was 0.526 and the relative viability ([5]; first compound 0.01581 µM) was 0.508. For the same compound, the relative viability ([5]; first compound 0.05 µM) was 0.573, the relative viability ([5]; first compound 0.1581 µM) was 0.467 and the relative viability ([5]; first compound 0.5 µM) was 0.511. For the same compound, the relative viability ([6]; first compound 0.005 µM) was 1.01, the relative viability ([6]; first compound 0.01581 µM) was 0.959 and the relative viability ([6]; first compound 0.05 µM) was 1.07. For the same compound, the relative viability ([6]; first compound 0.1581 µM) was 1.21, the relative viability ([6]; first compound 0.5 µM) was 1.12 and the relative viability ([7]; first compound 0.005 µM) was 0.521. For the same compound, the relative viability ([7]; first compound 0.01581 µM) was 0.616, the relative viability ([7]; first compound 0.05 µM) was 0.49 and the relative viability ([7]; first compound 0.1581 µM) was 0.601. The relative viability ([7]; first compound 0.5 µM) was 0.393, the relative viability ([8]; first compound 0.005 µM) was 0.956 and the relative viability ([8]; first compound 0.01581 µM) was 0.981. The relative viability ([8]; first compound 0.05 µM) was 0.981, the relative viability ([8]; first compound 0.1581 µM) was 0.998 and the relative viability ([8]; first compound 0.5 µM) was 0.841. The relative viability ([9]; first compound 0.005 µM) was 0.776, the relative viability ([9]; first compound 0.01581 µM) was 0.809 and the relative viability ([9]; first compound 0.05 µM) was 0.895. For the same compound, the relative viability ([9]; first compound 0.5 µM) was 0.844, the relative viability ([10]; first compound 0.005 µM) was 0.748 and the relative viability ([10]; first compound 0.01581 µM) was 0.856. For the same compound, the relative viability ([10]; first compound 0.05 µM) was 0.975, the relative viability ([10]; first compound 0.1581 µM) was 0.783 and the relative viability ([10]; first compound 0.5 µM) was 0.876. It also gave a relative viability ([11]; first compound 0.005 µM) of 0.402, a relative viability ([11]; first compound 0.01581 µM) of 0.254 and a relative viability ([11]; first compound 0.05 µM) of 0.167. The relative viability ([11]; first compound 0.1581 µM) was 0.158, the relative viability ([11]; first compound 0.5 µM) was 0.283 and the relative viability ([12]; first compound 0.005 µM) was 0.838. It also gave a relative viability ([12]; first compound 0.01581 µM) of 0.966, a relative viability ([12]; first compound 0.05 µM) of 0.883 and a relative viability ([12]; first compound 0.1581 µM) of 0.935. The relative viability ([12]; first compound 0.5 µM) was 0.821.
For `COc1cc2nccc(Oc3ccc(NC(=O)Nc4cc(C)on4)c(Cl)c3)c2cc1OC` [Tivozanib] + Cc1nc(NC(=O)N2CCC[C@H]2C(N)=O)sc1-c1ccnc(C(C)(C)C(F)(F)F)c1 [Alpelisib] (partner 2 µM), the relative viability ([1]; first compound 0.005 µM) was 0.715, the relative viability ([1]; first compound 0.01581 µM) was 0.754 and the relative viability ([1]; first compound 0.05 µM) was 0.793. For the same compound, the relative viability ([1]; first compound 0.1581 µM) was 0.612, the relative viability ([1]; first compound 0.5 µM) was 0.774 and the relative viability ([2]; first compound 0.01581 µM) was 1.2. It also gave a relative viability ([2]; first compound 0.05 µM) of 0.933, a relative viability ([2]; first compound 0.1581 µM) of 1.04 and a relative viability ([2]; first compound 0.5 µM) of 1.07. The relative viability ([3]; first compound 0.005 µM) was 0.993, the relative viability ([3]; first compound 0.01581 µM) was 0.969 and the relative viability ([3]; first compound 0.05 µM) was 0.943. The relative viability ([3]; first compound 0.1581 µM) was 0.863, the relative viability ([3]; first compound 0.5 µM) was 0.874 and the relative viability ([4]; first compound 0.005 µM) was 0.79. For the same compound, the relative viability ([4]; first compound 0.01581 µM) was 0.924, the relative viability ([4]; first compound 0.05 µM) was 0.811 and the relative viability ([4]; first compound 0.1581 µM) was 0.59. For the same compound, the relative viability ([4]; first compound 0.5 µM) was 0.74, the relative viability ([5]; first compound 0.005 µM) was 0.659 and the relative viability ([5]; first compound 0.01581 µM) was 0.623. For the same compound, the relative viability ([5]; first compound 0.05 µM) was 0.718, the relative viability ([5]; first compound 0.1581 µM) was 0.597 and the relative viability ([5]; first compound 0.5 µM) was 0.531. For the same compound, the relative viability ([6]; first compound 0.005 µM) was 0.951, the relative viability ([6]; first compound 0.01581 µM) was 0.938 and the relative viability ([6]; first compound 0.05 µM) was 1.04. It also gave a relative viability ([6]; first compound 0.1581 µM) of 0.997, a relative viability ([6]; first compound 0.5 µM) of 1.01 and a relative viability ([7]; first compound 0.005 µM) of 0.93. The relative viability ([7]; first compound 0.01581 µM) was 1.19, the relative viability ([7]; first compound 0.05 µM) was 1.55 and the relative viability ([7]; first compound 0.1581 µM) was 0.84. It also gave a relative viability ([7]; first compound 0.5 µM) of 0.896, a relative viability ([8]; first compound 0.005 µM) of 1.09 and a relative viability ([8]; first compound 0.01581 µM) of 1.11. The relative viability ([8]; first compound 0.05 µM) was 1.08, the relative viability ([8]; first compound 0.1581 µM) was 1.13 and the relative viability ([8]; first compound 0.5 µM) was 1.06. It also gave a relative viability ([9]; first compound 0.005 µM) of 0.766, a relative viability ([9]; first compound 0.01581 µM) of 0.693 and a relative viability ([9]; first compound 0.05 µM) of 0.887. For the same compound, the relative viability ([9]; first compound 0.5 µM) was 0.882, the relative viability ([10]; first compound 0.005 µM) was 1 and the relative viability ([10]; first compound 0.01581 µM) was 0.853. For the same compound, the relative viability ([10]; first compound 0.05 µM) was 1.06, the relative viability ([10]; first compound 0.1581 µM) was 0.965 and the relative viability ([10]; first compound 0.5 µM) was 1.01. It also gave a relative viability ([11]; first compound 0.005 µM) of 0.262, a relative viability ([11]; first compound 0.01581 µM) of 0.179 and a relative viability ([11]; first compound 0.05 µM) of 0.201. It also gave a relative viability ([11]; first compound 0.1581 µM) of 0.155, a relative viability ([11]; first compound 0.5 µM) of 0.203 and a relative viability ([12]; first compound 0.005 µM) of 0.773. For the same compound, the relative viability ([12]; first compound 0.01581 µM) was 0.847, the relative viability ([12]; first compound 0.05 µM) was 1.02 and the relative viability ([12]; first compound 0.1581 µM) was 0.74. For the same compound, the relative viability ([12]; first compound 0.5 µM) was 0.714.
